{"source": "paper PMC5279725", "about": "(PLoS ONE, 2017)", "key": {"MPO in CF sputum sol [1]": {"test_system": "MPO in CF sputum sol", "assay": "MPO peroxidase activity (TMB) in CF sputum sol ± neutrophils (PMN), heat-killed P. aeruginosa or heat-aggregated IgG", "type": "biochemical", "details": "CF sol only, + killed P. aeruginosa, + Agg IgG", "protocol": "To these samples were added 1×10^6 neutrophils for 1 hour at 37°C. These samples were then analyzed for MPO peroxidase activity by TMB assay, described below.\n(§1) To measure MPO peroxidase activity using TMB, 20 μl of assay supernatant, CF sol, or neutrophil lysate was serially diluted and then combined with 100 μl of TMB in a non-treated 96-well plate followed by 100 μl of 2.5 N H2SO4 (stop buffer) and absorbance was read at 450 nm. For MPO functional assays using ABTS, 150 μl of ABTS solution was added to each sample and incubated for 5 minutes before adding 100 μl of 1% SDS to stop the reaction. Absorbance was read at 405 nm. O-dianisidine working solution was prepared by making a 0.166 mg/ml solution in 50 mM phosphate-citrate buffer, pH 5.0 with a final of 0.006% H2O2 added immediately before use. For MPO measurements, 100 μl of the prepared O-dianisidine solution was added to each sample and incubated for 2 minutes before adding 100 μl of 2.5 N H2SO4 to stop the reaction. Absorbance was read at 405 nm."}, "MPO in CF sputum sols": {"test_system": "MPO in CF sputum sols", "assay": "MPO peroxidase activity (TMB) in 14 clinical CF sputum sols", "type": "biochemical", "protocol": "Expectorated sputum samples were collected in sterile containers and immediately placed on ice. The soluble fraction (sol) was extracted as a supernatant of free flowing liquid after cold (4°C) centrifugation at 14,000 g for 60 minutes, similar to previously described methods. Due to the normal differences in CF sputum viscosity, sol fractions were not normalized for protein content consistent with previously described methods.\nas §1"}, "MPO in CF sputum sol [2]": {"test_system": "MPO in CF sputum sol", "assay": "PIC1 dose-response on MPO activity (TMB) in CF sputum sol #2m", "type": "biochemical", "protocol": "as §1"}, "MPO in CF sol": {"test_system": "MPO in CF sol", "assay": "pH effect on MPO peroxidase activity (TMB) in CF sol", "type": "biochemical", "details": "PIC1 7.5 mM (pH 4.7) vs sol acidified to pH 4.0", "protocol": "Assays of pH effect on MPO peroxidase activity in CF sols was performed by adjusting one representative CF sol, initially at a pH of 7.0, to pH values of 6.0, 5.0, and 4.0 using H2SO4. […] TMB was added after 5 minutes.\nas §1"}, "MPO in neutrophil lysate": {"test_system": "MPO in neutrophil lysate", "assay": "MPO peroxidase activity (TMB) in neutrophil lysate", "type": "biochemical", "details": "0.9 mM PIC1 vs no PIC1, n = 4, P < 0.001", "protocol": "Neutrophils from the blood of healthy volunteers were purified from heparinized blood by Hypaque-Ficoll step gradient centrifugation, dextran sedimentation, and hypotonic lysis, as previously described. Neutrophils were adjusted to 1×10^7 cells/ml for the functional studies. Neutrophils were sedimented, lysed in 1% Triton X-100, and 1×10^6 cell/ml equivalent aliquots were used for neutrophil lysate assays.\n(§2) MPO peroxidase activity utilizing pure MPO was assayed by combing the MPO solution, diluted to 160 nM with PBS buffer, with an inhibitor, at denoted concentrations, in a 1:1 ratio (v/v) for 1 min. prior to adding TMB.\nas §1, with “For MPO measurements, 100 μl of the prepared O-dianisidine solution was added to each sample and incubated for 2 minutes before adding 100 μl of 2.5 N H2SO4 to stop the reaction.” left out"}, "purified MPO [3]": {"test_system": "purified MPO", "assay": "Purified MPO oxidation of TMB", "type": "biochemical", "protocol": "as §2, §1"}, "purified MPO [4]": {"test_system": "purified MPO", "assay": "Purified MPO oxidation of ABTS", "type": "biochemical", "details": "PIC1 0.5–0.9 mM", "protocol": "as §2, §1"}, "purified MPO [5]": {"test_system": "purified MPO", "assay": "Purified MPO oxidation of O-dianisidine", "type": "biochemical", "details": "PIC1 0.5–0.9 mM", "protocol": "as §2, §1"}, "purified MPO [6]": {"test_system": "purified MPO", "assay": "Dose-response inhibition of pure MPO at various MPO concentrations", "type": "biochemical", "protocol": "as §1"}, "MPO heme ring [7]": {"test_system": "MPO heme ring", "assay": "Spectral analysis of MPO heme ring with H2O2", "details": "2.5 mM PIC1, 200 μM H2O2", "protocol": "(§3) As each component is added to the MPO it is allowed to incubate for 5 minutes. […] Absorbance values were recorded from 300–550 nm."}, "MPO heme ring [8]": {"test_system": "MPO heme ring", "assay": "Spectral analysis of MPO heme ring with bleach (NaOCl)", "details": "2 μM MPO, 2.5 mM PIC1, bleach 1:1000, n = 2", "protocol": "as §3"}, "MPO": {"test_system": "MPO", "assay": "Ferrozine assay of Fe release from MPO in the presence of bleach", "details": "2 μM MPO, 2.5 mM PIC1, bleach 1:1000; 562 nm", "protocol": "Iron release from MPO was measured utilizing a ferrozine assay. After the absorbance spectra was recorded, 100 μl of ascorbic acid (100 mM) was added to each sample and allowed to incubate for 5 minutes. Then 50 μl of ammonium acetate (16%) and 50 μl of ferrozine (16 mM) were added to the samples and mixed. After incubating for 5 minutes, absorbance was measured at 562 nm. A standard curve was prepared using ammonium Fe(III) sulfate and a linear regression was used to calculate the free iron concentration."}, "[9]": {"assay": "Reversal/inhibition of TMB oxidation, PIC1 added before TMB or after TMB incubated with MPO", "type": "biochemical", "details": "PIC1 added after MPO and TMB had incubated", "protocol": "We then tested whether PIC1 could reverse the oxidized state of TMB after incubation with MPO."}, "[10]": {"assay": "Anti-oxidant assay: TMB oxidized by solid-phase MPO, transferred to uncoated well", "type": "biochemical", "details": "absorbance 450 nm, n = 4, P = 0.02", "protocol": "Pure MPO was coated onto an Immunlon-2 96 well plate at 24 μg/ml in carbonate buffer overnight at 4°C. The plate was washed to remove unbound protein with PBS and 0.05% Tween, and then 100 μl of TMB was added. […] After 1 minute, 100 μl of 2.5 N H2SO4 was added to stop the reaction and absorbance was read at 450 nm."}, "C1q": {"test_system": "C1q", "details": "cited from earlier work"}, "complement activation": {"test_system": "complement activation", "details": "cited from earlier work", "description": "DMSO as a diluent decreas ..."}, "[11]": {"details": "cited from earlier work", "description": "Evidence from previous investigators implicate MPO as a major contributor to CF lung damage, which is consistent with MPO being the most prevalent peroxidase in neutrophils and the clear role of neutrophils mediating lung destruction in CF."}}}
{"substance": "IALILEPICCQERAA-dPEG24 [PIC1]", "values": [{"measurement": "MPO oxidation of TMB", "setting": "MPO in CF sputum sol [1]", "value": "dramatically inhibited MPO oxidation of TMB in all conditions"}, {"measurement": "median MPO activity after PIC1", "setting": "MPO in CF sputum sols; 7.5 mM PIC1, 14 CF sputum samples, as number of neutrophils lysed to yield equivalent TMB oxidation, baseline median 94.0, P = 0.02", "value": 27.9}, {"measurement": "decrease in median MPO activity", "setting": "MPO in CF sputum sols; 7.5 mM PIC1, 14 CF sputum samples, vs baseline, P = 0.02", "value": 3.4, "unit": "fold"}, {"measurement": "change in MPO activity", "setting": "MPO in CF sputum sols; 7.5 mM PIC1, each of 14 samples", "value": "decrease in MPO activity"}, {"measurement": "MPO-postPIC1 median", "setting": "MPO in CF sputum sols; PIC1 7.5 mM, 14 samples, MPO-pre median 93.975", "value": 27.935, "unit": "x 10E6"}, {"measurement": "MPO-postPIC1", "setting": "MPO in CF sputum sols; PIC1 7.5 mM, sample 1e, MPO-pre 117.41", "value": 30.1, "unit": "x 10E6"}, {"measurement": "MPO-postPIC1", "setting": "MPO in CF sputum sols; PIC1 7.5 mM, sample 2j, MPO-pre 17.29", "value": 0, "unit": "x 10E6"}, {"measurement": "MPO-postPIC1", "setting": "MPO in CF sputum sols; PIC1 7.5 mM, sample 2m, MPO-pre 158.85", "value": 43.21, "unit": "x 10E6"}, {"measurement": "MPO-postPIC1", "setting": "MPO in CF sputum sols; PIC1 7.5 mM, sample 3i, MPO-pre 1117.64", "value": 493.15, "unit": "x 10E6"}, {"measurement": "MPO-postPIC1", "setting": "MPO in CF sputum sols; PIC1 7.5 mM, sample 4a, MPO-pre 7.9", "value": 0, "unit": "x 10E6"}, {"measurement": "MPO-postPIC1", "setting": "MPO in CF sputum sols; PIC1 7.5 mM, sample 5e, MPO-pre 305.93", "value": 173.21, "unit": "x 10E6"}, {"measurement": "MPO-postPIC1", "setting": "MPO in CF sputum sols; PIC1 7.5 mM, sample 10g, MPO-pre 71.54", "value": 19.09, "unit": "x 10E6"}, {"measurement": "MPO-postPIC1", "setting": "MPO in CF sputum sols; PIC1 7.5 mM, sample 15e, MPO-pre 55.77", "value": 12.92, "unit": "x 10E6"}, {"measurement": "MPO-postPIC1", "setting": "MPO in CF sputum sols; PIC1 7.5 mM, sample 17c, MPO-pre 77.44", "value": 25.77, "unit": "x 10E6"}, {"measurement": "MPO-postPIC1", "setting": "MPO in CF sputum sols; PIC1 7.5 mM, sample 28a, MPO-pre 325.09", "value": 297.05, "unit": "x 10E6"}, {"measurement": "MPO-postPIC1", "setting": "MPO in CF sputum sols; PIC1 7.5 mM, sample 29e, MPO-pre 110.51", "value": 43.24, "unit": "x 10E6"}, {"measurement": "MPO-postPIC1", "setting": "MPO in CF sputum sols; PIC1 7.5 mM, sample 34j, MPO-pre 68.92", "value": 16.55, "unit": "x 10E6"}, {"measurement": "MPO-postPIC1", "setting": "MPO in CF sputum sols; PIC1 7.5 mM, sample 1d, MPO-pre 229", "value": 214.65, "unit": "x 10E6"}, {"measurement": "MPO-postPIC1", "setting": "MPO in CF sputum sols; PIC1 7.5 mM, sample 9d, MPO-pre 34.41", "value": 0, "unit": "x 10E6"}, {"measurement": "reduction in MPO activity", "setting": "MPO in CF sputum sol [2]; 7.5 mM PIC1 vs no PIC1, n = 3, P = 0.001", "value": 11.5, "unit": "fold"}, {"measurement": "inhibition of MPO activity", "setting": "MPO in CF sputum sol [2]; PIC1 titration", "value": "dose-dependent inhibition of MPO activity"}, {"measurement": "role of acidification in MPO inhibition", "setting": "MPO in CF sol", "value": "not mediated by acidification of the sol"}, {"measurement": "inhibition of MPO activity", "setting": "MPO in neutrophil lysate", "value": 12.5, "unit": "fold"}, {"measurement": "inhibition of purified MPO oxidation of TMB", "setting": "purified MPO [3]; 0.9 mM PIC1, MPO 80 nM, n = 3, P < 0.001", "value": 28, "unit": "fold"}, {"measurement": "improvement in MPO inhibition compared with ABAH", "setting": "purified MPO [3]; 0.9 mM, TMB, P = 0.002", "value": 7, "unit": "fold"}, {"measurement": "inhibition of purified MPO oxidation of ABTS", "setting": "purified MPO [4]", "value": "dramatically inhibited"}, {"measurement": "inhibition of purified MPO oxidation of O-dianisidine", "setting": "purified MPO [5]", "value": "dramatically inhibited"}, {"measurement": "inhibition of MPO peroxidase activity", "setting": "purified MPO [6]; 0.5 mM PIC1, 20 μM MPO, P < 0.001", "value": 5.4, "unit": "fold"}, {"measurement": "inhibition of MPO peroxidase activity", "setting": "purified MPO [6]; MPO concentrations up to 80 μM", "value": "Concentration dependent PIC1 inhibition of MPO peroxidase activity"}, {"measurement": "heme ring protection", "setting": "MPO heme ring [7]", "value": "able to inhibit oxidative damage to the heme ring and alteration of the iron charge state"}, {"measurement": "protection of MPO from bleach", "setting": "MPO heme ring [8]", "value": "largely protected from the oxidative effects of bleach"}, {"measurement": "bleach-mediated iron release from MPO", "setting": "MPO", "value": "able to prevent bleach-mediated release of iron from MPO"}, {"measurement": "reversal of TMB oxidation", "setting": "[9]", "value": "the color change was reversed and the absorbance value was minimal"}, {"measurement": "reduction in oxidized TMB", "setting": "[10]", "value": 20, "unit": "fold"}, {"measurement": "C1 enzymatic activation", "setting": "C1q", "value": "inhibits enzymatic activation"}, {"measurement": "C1q binding affinity", "setting": "C1q; similar to C1r-C1s-C1s-C1r tetramer", "value": "nanomolar affinity"}, {"measurement": "P. aeruginosa-initiated complement activation", "setting": "complement activation; CF sputum sols", "value": "can inhibit P. aeruginosa-initiated complement activation"}, {"measurement": "C5a generation", "setting": "complement activation; CF sputum soluble fraction", "value": "can inhibit P. aeruginosa-mediated generation of the pro-inflammatory anaphylatoxin C5a"}, {"measurement": "aqueous solubility", "setting": "[11]", "value": "excellent aqueous solubility"}, {"measurement": "tolerability in vivo", "setting": "[11]", "value": "well tolerated in vivo"}]}
